Results as given in PubChem BioAssay (NCI).
Where “and” joins values, the source holds several entries; their conditions need not be identical. Equal values may be shown once.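 Tested at 5 concentrations; 48 h exposure; 96-well plates; endpoints linearly interpolated, else capped at highest concentration. At the GI50, growth is halved. The concentration for full growth arrest is given as TGI.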

Assays:
Test in all cases: DTP human tumour cell line panel, 48 h
A549 NSCLC = system: A549 NSCLC
HS 578T breast = system: HS 578T breast
HT29 colon = system: HT29 colon
KM12 colon = system: KM12 colon
NCI-H226 lung = system: NCI-H226 lung
OVCAR-3 ovarian = system: OVCAR-3 ovarian
OVCAR-8 ovarian = system: OVCAR-8 ovarian
SK-MEL-28 melanoma = system: SK-MEL-28 melanoma
T-47D breast = system: T-47D breast
UACC-257 melanoma = system: UACC-257 melanoma

SMILES | GI50 (A549 NSCLC) [µM] | TGI (A549 NSCLC) | GI50 (HS 578T breast) [µM] | TGI (HS 578T breast) | GI50 (HT29 colon) [µM] | TGI (HT29 colon) | GI50 (KM12 colon) [µM] | TGI (KM12 colon) | GI50 (NCI-H226 lung) [µM] | TGI (NCI-H226 lung) [µM] | GI50 (OVCAR-3 ovarian) [µM] | TGI (OVCAR-3 ovarian) | GI50 (OVCAR-8 ovarian) [µM] | TGI (OVCAR-8 ovarian) | GI50 (SK-MEL-28 melanoma) [µM] | TGI (SK-MEL-28 melanoma) | GI50 (T-47D breast) [µM] | TGI (T-47D breast) | GI50 (UACC-257 melanoma) [µM] | TGI (UACC-257 melanoma)
CC(=O)c1ccc(Nc2cc(-c3ccccc3)nc3c(O)cccc23)cc1 | 30.6 | > 100 µM | 27 | > 100 µM | 20.7 | 43 µM | 5.72 | > 100 µM | 28.2 | > 100 | > 100 | > 100 µM | 19 | > 100 µM | 23.1 | 88.8 µM | 16.6 | 63.7 µM | 21 | 53.4 µM
O=C(Nc1nc2ccccc2s1)OCC(F)(F)F | > 100 | > 100 µM | > 100 | > 100 µM | > 100 | > 100 µM | > 100 | > 100 µM | > 100 | > 100 | > 100 | > 100 µM | > 100 | > 100 µM | > 100 | > 100 µM | > 100 | > 100 µM | > 100 | > 100 µM
Clc1ccccc1C(c1ccccc1)(c1ccccc1)n1ccnc1 | 2.43 | 13.3 µM and 29.3 µM | 3.45 | 19.7 µM and 35.2 µM | 2.24 | 7.1 µM and 28 µM | 2.23 | 6.25 µM and 36.8 µM | 3.13 | 17.7 | 1.78 | 4.41 µM and 17.6 µM | 2.69 | 20 µM and 26.3 µM | 3.86 | 15.6 µM and 36.1 µM | 2.3 | 14.5 µM and 30.4 µM | 3.43 | 14.2 µM and 25.2 µM
CN(C)CC(=O)N1CCC(c2ccc(NC(=O)c3ncc(C#N)[nH]3)c(C3=CCCCC3)c2)CC1 | 5 | 17.2 µM | 2.18 | 12.4 µM | 2.8 | 10.2 µM | 0.354 | 13.8 µM | 11.3 | 24.2 | 15.7 | 29.6 µM | 8.34 | 24 µM | 2.2 | 4.68 µM | 11.9 | 28.8 µM | 2.17 | 4.8 µM
CCn1c(-c2nonc2N)nc2c(C#CCN)ncc(OCCCN)c21 | > 25 | > 25 µM | > 25 | > 25 µM | > 25 | > 25 µM | > 25 | > 25 µM | > 25 | > 25 | > 25 | > 25 µM | > 25 | > 25 µM | > 25 | > 25 µM | > 25 | > 25 µM | > 25 | > 25 µM
COc1ccc(/C=C/C=C(/C#N)C(N)=S)cc1 | 33.1 | > 100 µM | 62.5 | > 100 µM | 26 | > 100 µM | 21.3 | 89.4 µM | 55.7 | > 100 | 15.5 | 42.7 µM | 21.5 | 54.3 µM | 23.8 | 65.7 µM | 18.8 | 76.9 µM | 20.4 | 41.4 µM
Brc1cccc(-c2cc(-c3ccc4c(c3)OCCO4)[nH]n2)c1 | 1.57 | 37.6 µM | 1.25 | 30.6 µM | 0.804 | 27.4 µM | 0.669 | 25.5 µM | 12.1 | 60.9 | 0.718 | 2.27 µM | 1.68 | 40.1 µM | 11.2 | 55.5 µM | 1.34 | 50.1 µM | 11.6 | 52.9 µM
CN=C(N)N/N=C(\c1ccccc1)c1ccc(Br)cc1 | 0.394 | 10.1 µM | 0.38 | 5.37 µM | 0.322 | 1.72 µM | 0.334 | 4.4 µM | 1.09 | 11.8 | 0.29 | 2.55 µM | 0.369 | 5.16 µM | 0.844 | 5.38 µM | 2.96 | 26.7 µM | 0.913 | 12.9 µM
COc1cc(/C=C\[N+](=O)[O-])ccc1O | 3.34 | 12.7 µM | 4.71 | 28.8 µM | 2.98 | 10.6 µM | 4.93 | 17.3 µM | 4.34 | 16.6 | 1.9 | 3.36 µM | 3.21 | 12.1 µM | 1.95 | 4.59 µM | 2.33 | 9.95 µM | 2.42 | 6.77 µM
C=C1C(=O)O[C@H]2[C@H]1CC/C(CNC(=O)c1c[nH]c3ccc(F)cc13)=C\CC[C@@]1(C)O[C@@H]21 | 4.59 | 19.6 µM | 2.65 | 13.1 µM | 1.19 | 2.91 µM | 2.69 | 10.2 µM | 13.9 | 38.6 | 0.486 | 1.77 µM | 2.61 | 10.3 µM | 1.33 | 3.16 µM | 1.36 | 5.03 µM | 2.06 | 4.89 µM
O=C(c1ccc2ccccc2c1)c1c(C(F)(F)F)n([O-])c2cc(Cl)c(Cl)cc2[n+]1=O | 1.63 | 2.98 µM | 1.85 | 4.15 µM | 1.49 | 2.81 µM | 1.53 | 2.86 µM | 1.46 | 2.92 | 1.39 | 2.69 µM | 1.61 | 3.27 µM | 1.74 | 3.57 µM | 1.24 | 3.01 µM | 1.63 | 3.03 µM
C=C1CCC2C(/C=C(\C)CCC1O)OC(=O)C2C (stereo not given) | > 100 | > 100 µM | > 100 | > 100 µM | > 100 | > 100 µM | > 100 | > 100 µM | > 100 | > 100 | > 100 | > 100 µM | > 100 | > 100 µM | > 100 | > 100 µM | > 100 | > 100 µM | > 100 | > 100 µM
